Data published in PMC11062894, “Protein-based bandpass filters for controlling cellular signaling with chemical inputs” (Nature Chemical Biology, 2023).

Tested on: GEMS receptors with CBPA11 (BclXL–LD3 and BclXLhigh variants), STAT3-driven SEAP in HEK293T cells
Test: GEMS SEAP reporter assay, CBPA11 (BclXLhigh, LD3-v and BclXL-v variants) with A-1155463
Type: cell-based
Parameters: key to Raw data (SEAP) / SEAP, replicate values / Raw data of Figure 5b / Raw data Figure 5e / Raw data of Independent repeat of CBPA11-v1 vs CBPA11-v1-LD3v3 / Raw data of Independent repeat of CBPA11-v3 vs CBPA11-v3-LD3v3 / Raw data of Figure 5b, CBPA11-v1-LD3v3 (SEAP reporter raw value, single replicate) / Raw data of Figure 5b, CBPA11-v1 (SEAP reporter raw value, single replicate): SEAP activity in U/L in culture supernatant
From the text: To rationally design a CBP responding to a chemical input, we used BclXL as the druglow receptor, LD3 as the designed binder and a designed BclXL variant as the drughigh receptor (referred to as BclXLhigh) to construct a CBP responsive to BclXL inhibitors (Fig. 4a). To design BclXLhigh, we used a multistate design computational protocol described elsewhere[26] […] Thus, BclXLhigh-v(1–3) were chosen as the functional drughigh receptors, resulting in three A-1155463-controlled CBPs (referred to as CBPA11-v(1–3)) (Fig. 4c–e).
HEK293T cells were seeded in a 96-well plate 24 h before transfection. The transfection mix in each well consisted of 3 ng of constitutive human CMV promoter driven mammalian STAT3 expression vector (PhCMV-STAT3-pA), 30 ng of STAT3-induced reporter expression (OStat3-PhCMVmin-SEAP-pA) and 50 ng of expression vectors for each GEMS receptor chain (PSV40-IgK-(drughigh receptor)-EpoRm-IL-6RBm-pA and PSV40-IgK-(druglow receptor-GGGGSX3-LD3)-EpoRm-IL-6RBm-pA). For the specific drughigh receptor and druglow receptor used in the different cellular assays, they are indicated as wild type or with mutations. Then, plasmid DNA was mixed with 50 μl opti-MEM (Thermo Fisher) and 600 ng of polyethyleneimine (Polysciences, catalog no. 24765-1). For drug treatment experiments, drugs were added 12 h post-transfection and incubated with cells for 24 h before the SEAP reporter detection assay.
SEAP activity (U l^−1) in cell culture supernatants was quantified by kinetic measurements at 405 nm (1 minute per measurement for 30 cycles) of absorbance increase due to phosphatase-mediated hydrolysis of para-nitrophenyl phosphate (pNPP).
Binding affinities of SPR drug competition assays were calculated using three-parameter nonlinear regression in GraphPad Prism (v.8.3.0). Representative data of cell assays are presented as individual values and mean values (bars). n = 3 refers to biological replicates. All IC50 or EC50 values of cell assays reported were calculated using four-parameter nonlinear regression ± s.d. Bandpass features of cutoff concentrations and Bandwidth90% were estimated based on the curve fitted using bell-shaped curve nonlinear regression in GraphPad Prism (v.8.3.0). […]
Supplementary Figure 4: Design, screening and validation of BclXLhigh variants. a) Screening of BclXLhigh variants in the GEMS platform. […]
Dissociation constant measurement of BclXLhigh-v(1-3) and LD3. Equilibrium curves are fitted using […]
BclXLhigh-v1 (purple), BclXLhigh-v2 (blue), […]
a) Bcl2high-based bandpass filter designs were developed and to respond to different concentrations of […]
corresponding inhibitor. c) Screening of Bcl2high-based bandpass filter variants in the GEMS platform.
The designed binder LD3 was fused to the druglow-receptor (PSV40-IgK-Bcl2-LD3-EpoRm-IL-6RBm-pA) in one EpoR chain and Bcl2high variants with the insensitive Bcl2 (iBcl2) as control in the other EpoR chain (PSV40-IgK-Bcl2high-EpoRm-IL-6RBm-pA). HEK293T cells were transfected with indicated […]
the mean of six biological replicates ± s.d., overlaid with a scatter dot plot of the original data points.
(1 picture or pasted object on this page, not shown here)
Supplementary Figure 6: Binding affinities and drug resistances of Bcl2high-v(2,4,5) assessed by […]
a) Measurement of dissociation constants for Bcl2high-v(2,4,5) and LD3 interactions. Equilibrium curves […]
Bcl2high-v(2,4,5) measured by SPR. 5 μM of Bcl2 or indicated variants were mixed with 10 μM of […]
Bcl2high-v2 (red), Bcl2high-v4
Supplementary Figure 7: Screening of LD3 variants in CBPA11-v(1-3) and raw data of CBPA11-v(1,3) with LD3-v3 variant. a-c) Screening of LD3 and LD3-v(1-3) variants in complex with BclXL for more sensitive CBPA11-v1 (a), CBPA11-v2 (b), CBPA11-v3 (c) in the GEMS platform. The LD3 variants replaced the role of LD3 (PSV40-IgK-BclXL-LD3-v(1-3)-EpoRm-IL-6RBm-pA) in one EpoR chain and BclXLhigh-v(1-3) in the other EpoR chain (PSV40-IgK-BclXLhigh-V(1-3)-EpoRm-IL-6RBm-pA). HEK293T cells were transfected with […]

[1] = SuppFigure 9a, BclXL, A-1155463 3.16 nM
[2] = SuppFigure 9a, BclXL, A-1155463 100 nM
[3] = SuppFigure 9a, BclXL, A-1155463 316 nM
[4] = SuppFigure 9a, BclXL, A-1155463 1000 nM
[5] = SuppFigure 9a, BclXL, A-1155463 3160 nM
[6] = SuppFigure 9a, BclXL, A-1155463 10000 nM
[7] = SuppFigure 9b, BclXL-v1, A-1155463 1 nM
[8] = SuppFigure 9b, BclXL-v1, A-1155463 3.16 nM
[9] = SuppFigure 9b, BclXL-v1, A-1155463 10 nM
[10] = SuppFigure 9b, BclXL-v1, A-1155463 31.6 nM
[11] = SuppFigure 9b, BclXL-v1, A-1155463 100 nM
[12] = SuppFigure 9b, BclXL-v1, A-1155463 316 nM
[13] = SuppFigure 9b, BclXL-v1, A-1155463 1000 nM
[14] = SuppFigure 9b, BclXL-v1, A-1155463 3160 nM
[15] = SuppFigure 9b, BclXL-v1, A-1155463 10000 nM
[16] = SuppFigure 9b, BclXL-v2, A-1155463 1 nM
[17] = SuppFigure 9b, BclXL-v2, A-1155463 3.16 nM
[18] = SuppFigure 9b, BclXL-v2, A-1155463 10 nM
[19] = SuppFigure 9b, BclXL-v2, A-1155463 31.6 nM
[20] = SuppFigure 9b, BclXL-v2, A-1155463 100 nM
[21] = SuppFigure 9b, BclXL-v2, A-1155463 316 nM
[22] = SuppFigure 9b, BclXL-v2, A-1155463 1000 nM
[23] = SuppFigure 9b, BclXL-v2, A-1155463 3160 nM
[24] = SuppFigure 9b, BclXL-v2, A-1155463 10000 nM
[25] = SuppFigure 9b, BclXL-v3, A-1155463 1 nM
[26] = SuppFigure 9b, BclXL-v3, A-1155463 3.16 nM
[27] = SuppFigure 9b, BclXL-v3, A-1155463 10 nM
[28] = SuppFigure 9b, BclXL-v3, A-1155463 31.6 nM
[29] = SuppFigure 9b, BclXL-v3, A-1155463 100 nM
[30] = SuppFigure 9b, BclXL-v3, A-1155463 316 nM
[31] = SuppFigure 9b, BclXL-v3, A-1155463 1000 nM
[32] = SuppFigure 9b, BclXL-v3, A-1155463 3160 nM
[33] = SuppFigure 9b, BclXL-v3, A-1155463 10000 nM
[34] = SuppFigure 9b, BclXL, A-1155463 1 nM
[35] = SuppFigure 9b, BclXL, A-1155463 3.16 nM
[36] = SuppFigure 9b, BclXL, A-1155463 10 nM
[37] = SuppFigure 9b, BclXL, A-1155463 31.6 nM
[38] = SuppFigure 9b, BclXL, A-1155463 100 nM
[39] = SuppFigure 9b, BclXL, A-1155463 316 nM
[40] = SuppFigure 9b, BclXL, A-1155463 1000 nM
[41] = SuppFigure 9b, BclXL, A-1155463 3160 nM
[42] = SuppFigure 9b, BclXL, A-1155463 10000 nM
[43] = SuppFigure 9c, LD3, A-1155463 1 nM
[44] = SuppFigure 9c, LD3, A-1155463 3.16 nM
[45] = SuppFigure 9c, LD3, A-1155463 10 nM
[46] = SuppFigure 9c, LD3, A-1155463 31.6 nM
[47] = SuppFigure 9c, LD3, A-1155463 100 nM

## CN(C)CC#Cc1ccc(OCCCc2sc(N3CCc4cccc(C(=O)Nc5nc6ccccc6s5)c4C3)nc2C(=O)O)c(F)c1 [A-1155463]
[1]
  Normalized data (SEAP): 6.043
  Raw data (SEAP): 25.9846
[2]
  Normalized data (SEAP): 100
  Raw data (SEAP): 429.99
[3]
  Normalized data (SEAP): 92.0518
  Raw data (SEAP): 395.813
[4]
  Normalized data (SEAP): 64.9807
  Raw data (SEAP): 279.41
[5]
  Normalized data (SEAP): 59.757
  Raw data (SEAP): 256.949
[6]
  Normalized data (SEAP): 20.582
  Raw data (SEAP): 88.5006
[7]
  Normalized data (SEAP): 29.2402
  Raw data (SEAP): 3.306
[8]
  Normalized data (SEAP): 25.4197
  Raw data (SEAP): 2.874
[9]
  Normalized data (SEAP): 91.2564
  Raw data (SEAP): 10.3177
[10]
  Normalized data (SEAP): 99.5447
  Raw data (SEAP): 11.2548
[11]
  Normalized data (SEAP): 88.866
  Raw data (SEAP): 10.0475
[12]
  Normalized data (SEAP): 80.3713
  Raw data (SEAP): 9.087
[13]
  Normalized data (SEAP): 71.8768
  Raw data (SEAP): 8.127
[14]
  Normalized data (SEAP): 100
  Raw data (SEAP): 11.3063
[15]
  Normalized data (SEAP): 93.1986
  Raw data (SEAP): 10.5373
[16]
  Normalized data (SEAP): 14.254
  Raw data (SEAP): 6.039
[17]
  Normalized data (SEAP): 18.0852
  Raw data (SEAP): 7.662
[18]
  Normalized data (SEAP): 44.9661
  Raw data (SEAP): 19.0516
[19]
  Normalized data (SEAP): 70.6852
  Raw data (SEAP): 29.9485
[20]
  Normalized data (SEAP): 100
  Raw data (SEAP): 42.3689
[21]
  Normalized data (SEAP): 44.6168
  Raw data (SEAP): 18.9036
[22]
  Normalized data (SEAP): 22.2068
  Raw data (SEAP): 9.409
[23]
  Normalized data (SEAP): 14.8235
  Raw data (SEAP): 6.281
[24]
  Normalized data (SEAP): 14.5729
  Raw data (SEAP): 6.174
[25]
  Normalized data (SEAP): 52.1022
  Raw data (SEAP): 4.346
[26]
  Normalized data (SEAP): 54.3684
  Raw data (SEAP): 4.535
[27]
  Normalized data (SEAP): 49.6336
  Raw data (SEAP): 4.14
[28]
  Normalized data (SEAP): 58.6885
  Raw data (SEAP): 4.895
[29]
  Normalized data (SEAP): 75.7473
  Raw data (SEAP): 6.318
[30]
  Normalized data (SEAP): 55.3616
  Raw data (SEAP): 4.618
[31]
  Normalized data (SEAP): 57.9749
  Raw data (SEAP): 4.836
[32]
  Normalized data (SEAP): 83.7705
  Raw data (SEAP): 6.988
[33]
  Normalized data (SEAP): 90.2218
  Raw data (SEAP): 7.526
[34]
  Normalized data (SEAP): 18.8536
  Raw data (SEAP): 4.217
[35]
  Normalized data (SEAP): 21.8131
  Raw data (SEAP): 4.879
[36]
  Normalized data (SEAP): 73.5481
  Raw data (SEAP): 16.4519
[37]
  Normalized data (SEAP): 74.0156
  Raw data (SEAP): 16.5565
[38]
  Normalized data (SEAP): 100
  Raw data (SEAP): 22.3689
[39]
  Normalized data (SEAP): 57.787
  Raw data (SEAP): 12.9263
[40]
  Normalized data (SEAP): 39.6131
  Raw data (SEAP): 8.861
[41]
  Normalized data (SEAP): 30.6519
  Raw data (SEAP): 6.8565
[42]
  Normalized data (SEAP): 26.3116
  Raw data (SEAP): 5.886
[43]
  Normalized data (SEAP): 9.095
  Raw data (SEAP): 7.283
[44]
  Normalized data (SEAP): 10.2911
  Raw data (SEAP): 8.241
[45]
  Normalized data (SEAP): 55.7186
  Raw data (SEAP): 44.6179
[46]
  Normalized data (SEAP): 64.2529
  Raw data (SEAP): 51.4519
[47]
  Normalized data (SEAP): 100
  Raw data (SEAP): 80.0772
SuppFigure 9c, LD3, A-1155463 316 nM
  Normalized data (SEAP): 76.4435
